Earlier results as cited in the CATMoS acute toxicity set (Mansouri et al. 2021).
“And” between values parts separate entries of the source, which are not always exact repeats. Equal entries are not always repeated.

Assay: rat acute oral toxicity
Details: in vivo

SMILES	LD50
CN(N=O)c1ccncc1	200 mg/kg
C=CCCCCCCCCC(=O)OC	1560 mg/kg
CCC(CO)(CO)CO	14100 mg/kg
O=C1CCc2cc(C=CCN3CCN(c4cccc(Cl)c4)CC3)ccc2N1	500 mg/kg
CN(C)N=Nc1ccc(Cl)cc1	362 mg/kg
CN(C)C(=O)NC1CCCCCCC1	1500 mg/kg
CCCCCCCCCCCC[N+](C)(C)CC(O)CCl (configuration not stated)	1070 mg/kg
CCC(C(=O)O)C1(O)CCCCC1 (configuration not stated)	4820 mg/kg
C=CCC(CCN(CC)CC)(C(=O)OCC)c1ccccc1 (configuration not stated)	200 mg/kg
COP(=S)(OC)Oc1ccc(Sc2ccc(OP(=S)(OC)OC)c(C)c2)cc1C	250 mg/kg
NCCOC(=O)c1ccccc1	9270 mg/kg
CCN(CC)C(=O)c1ccc(O)c(OC)c1	154 mg/kg
O=C1C2C3CCC(C3)C2C(=O)N1CCCCN1CCN(c2ncccn2)CC1 (configuration not stated)	590 mg/kg
COC(=O)COc1ccc2ccccc2c1	2800 mg/kg
CC[C@@]1(O)C[N@@]2CC[C@H]1C[C@@H]2[C@@H](O)c1ccnc2ccc(OC)cc12	600 mg/kg
O=C(CS(=O)Cc1ccco1)NC/C=C\COc1cc(CN2CCCCC2)ccn1 (configuration not stated)	1250 mg/kg
COc1cc(Cc2cnc(N)nc2N)cc(OC)c1N(C)C	1400 mg/kg
COP(=O)(SC)c1ccccc1 (configuration not stated)	55.3 mg/kg
Cc1cccc(I)c1	2300 mg/kg
COc1ccc2c(c1)Sc1ccccc1N2C1CCCN(C)C1 (configuration not stated)	750 mg/kg
CCCCCCCC[N+](C)(CCCCCCCC)CCCCCCCC	223 mg/kg
O=C(O)CCCCC(=O)O	7900 mg/kg and 10000 mg/kg
OCCS	244 mg/kg

SMILES	LD50
CC(C)(C)CCCCCCC(=O)O	2070 mg/kg
Nc1n[nH]c2ccc(C(F)(F)F)cc12	90 mg/kg
CNC(N)=S	50 mg/kg
COc1ccc2c(c1)CCC(N(CCCCOC(=O)c1ccc(OC)c(OC)c1)C(C)C)C2 (configuration not stated)	1540 mg/kg
CN1CCN(C)CC1	1120 mg/kg
CC(C)[C@@]1(NC(=O)[C@@H]2C[C@@H]3c4cccc5[nH]cc(c45)C[C@H]3N(C)C2)O[C@@]2(O)[C@@H]3CCCN3C(=O)[C@H](Cc3ccccc3)N2C1=O	2640 mg/kg
O=C(c1ccccc1)c1cccc(NS(=O)(=O)C(F)F)c1	750 mg/kg and 450 mg/kg
CNCCCC1c2ccccc2CN(C)c2ccccc21 (configuration not stated)	331 mg/kg
OCCc1ccncc1	3500 mg/kg
COc1ccc2c(c1)c(CC(=O)OCC(C(=O)O)c1ccccc1)c(C)n2C(=O)c1ccc(Cl)cc1 (configuration not stated)	140 mg/kg
CN1CCc2ccccc21	1250 mg/kg
COc1ccccc1C1CCN(CCCc2ccc3c(c2)CCC(=O)N3)CC1	500 mg/kg
OCC1CCc2cc(C3CCCCC3)ccc21 (configuration not stated)	295 mg/kg and 165 mg/kg
c1ccc2c(c1)Sc1ccccc1N2CC1CN2CCC1CC2 (configuration not stated)	245 mg/kg
CC(C)C1=Nc2ccccc2C1=C(N)c1cccnc1	350 mg/kg
COP(=S)(OC)SCSc1ccc(Cl)c(Cl)c1	220 mg/kg
C=CC(Cl)=C(Cl)Cl	680 mg/kg
CSC(C)=NOC(=O)N(C)SN(C)C(=O)Oc1ccc(OC(=O)N(C)SN(C)C(=O)ON=C(C)SC)cc1	453 mg/kg
CN(C)C(=O)Oc1ccc[n+](C)c1	37.5 mg/kg
CCOP(=S)(OCC)SCn1ncccc1=O	2.5 mg/kg
CC(=O)Nc1cc(Cl)c([N+](=O)[O-])cc1Cl	2830 mg/kg
CCC(C(=O)O)c1ccc(CC(C)C)cc1 (configuration not stated)	1600 mg/kg
C=CC1OCCO1	84.7 mg/kg

SMILES	LD50
OC[C@@H](O)[C@H]1O[C@@H]2O[C@H](C(Cl)(Cl)Cl)O[C@@H]2[C@H]1O	400 mg/kg
O=C1C(Cl)=C(Cl)C(=O)C1=C(Cl)Cl	2300 mg/kg
CCCCCCCCSCCO	8530 mg/kg
Fc1ccc([C@@H]2CCNC[C@H]2COc2ccc3c(c2)OCO3)cc1	415 mg/kg
CCOP(=O)(O)C(N)=O	10100 mg/kg
N#CCCNCCC#N	2700 mg/kg
O=C(Cc1ccccc1)NNCc1ccccc1	2500 mg/kg
Cl[C@H]1[C@H](Cl)[C@@H](Cl)[C@H](Cl)[C@@H](Cl)[C@H]1Cl (racemic)	1000 mg/kg
CC[N+](CC)(CC)CC	2630 mg/kg
CCNC(N)=S	100 mg/kg
CCC(=O)Nc1ncc(Cl)s1	316 mg/kg
Clc1ccc(C(OCCN2CCOCC2)c2ccccc2)cc1 (configuration not stated)	710 mg/kg
CN1CCC(OC2c3ccccc3CCc3ccccc32)CC1	1500 mg/kg
CO[C@H]1C=CC2=CCN3CCC4=C(CC(=O)OC4)[C@]23C1	510 mg/kg
ClCC(Cl)=C(Cl)C(Cl)Cl	472 mg/kg
CCC(O)(c1ccccc1)c1cccc(C(F)(F)F)c1 (configuration not stated)	2240 mg/kg
CC(=O)C=Cc1ccc(-c2ccccc2)cc1	2230 mg/kg
CCCC1(CC(=O)O)OCCc2c1[nH]c1ccccc21 (configuration not stated)	1420 mg/kg
Cc1ccc(S(=O)(=O)N(C)N=O)cc1	2700 mg/kg
Cc1occc1C(=O)Nc1ccccc1	12900 mg/kg
C1=CC2C3CCC(C3)C2C1 (configuration not stated)	670 mg/kg
